{"source": "patent US20250114436A1", "about": "“DYNAMIC-COVALENT HYDROGELS WITH GLUCOSE-SPECIFIC AND GLUCOSE-RESPONSIVE DIBORONATE CROSSLINKING” (UNIVERSITY OF NOTRE DAME DU LAC, priority 2022, published 2025)", "key": {"[1]": {"test": "Isothermal titration calorimetry (ITC), fructose binding", "description": "(§1) The binding affinities (Keq) between different small molecule PBAs and model analytes (FIG. 2) were measured through isothermal titration calorimetry (ITC). All titration experiments were performed at 298 K on a PEAQ-ITC calorimeter (MicroCal, Inc.) in degassed pH 7.4 PBS buffer, using a 38 μL syringe and 200 μL cells and consisting of 19 injections. The measurements were performed by titrating glucose, fructose, sodium lactate, or Diolsm from the syringe into a solution of small molecule variants of DiPBAsm, PyPBAsm, or FPBAsm loaded in the cell. In all titration experiments, the cell concentration was 1 mM, while the analyte concentrations in the syringe were varied according to experimental optimization. All raw data were corrected by subtraction of a dilution measurement of the titrated analytes into buffer and were then analyzed and graphed using the integrated public-domain software packages of NIPIC, SEDPHAT, and GUSSI according to a published protocol. See Brautigam et al., Nat. Protoc. 11(5): 882-894 (2016).\n(§2) To first quantify the affinities of binding for these different PBA motifs to glucose, related analytes, and model diols, a set of small molecules (FIG. 2) were synthesized for isothermal titration calorimetry (ITC) studies. […] By comparison, the commonly used FPBA motif had Keq for glucose binding of only 8.6 M^−1. […] Accordingly, concerns over low-affinity glucose-binding and poor glucose selectivity of traditional PBAs are supported by these ITC data, with both issues seemingly overcome using DiPBA chemistry. […] Finally, to explore the likely outcomes of using each of these PBA motifs in the context of dynamic-covalent networks a model diol (GdL-Diol) was prepared from reaction of glucono-δ-lactone (GdL) with benzylamine. The Keq of binding for each PBA motif to this model diol were nearly identical (˜5×10^3 M^−1); this finding confirms similar 1:1 binding stoichiometry between all three PBA chemistries studied here and the GdL-derived diol chemistry commonly used in preparing dynamic-covalent PBA-diol networks."}, "[2]": {"test": "Isothermal titration calorimetry (ITC), glucose binding", "details": "for Keq for binding to glucose: 298 K, pH 7.4 PBS", "description": "as §1, §2"}, "[3]": {"test": "Isothermal titration calorimetry (ITC), lactate binding", "description": "as §1, §2"}, "[4]": {"test": "Acid-base titration for pKa determination", "type": "physicochemical", "details": "small molecule", "description": "A 0.01 M stock solution of the PBA of interest was prepared by dissolving 0.2 mmol of each PBA in 20 mL DI water. The solution was then titrated with 0.005 M NaOH solution under constant stirring with pH monitoring.\nPreviously reported diboronate glucose sensors include architectures of two phenylboronic acids attached to an aryl core via charged ammonium linkers. In a variation on this approach, the DiPBA motif explored here has introduced adjacent charge via pyridine-based phenylboronic acid structures (FIG. 1B). Besides conserving adjacent positive charge, the topology of this novel design was also intended to afford a more rigid pocket for simultaneous glucose binding by both boronates (FIG. 2B). Details for the synthesis and molecular characterization of this novel DiPBA group, along with all other synthetic small molecules and macromers, are reported in the Online Supporting Information. As a control for this glucose-binding motif, a single pyridine-PBA (PyPBA) was also synthesized. DiPBA and PyPBA motifs were compared in this work to a fluorine-substituted PBA motif (FPBA) that has been routinely reported in glucose-responsive materials and therapeutic constructs."}, "[5]": {"test_system": "streptozotocin (STZ)-induced diabetic mice", "test": "Blood glucose control in vivo with glucose tolerance tests", "design": "species or system male C57BL6/J mice", "details": "free insulin 4 IU/kg", "description": "To evaluate the performance hydrogels for blood glucose control, male C57BL6/J mice (8 weeks old, ˜25 g/mouse; Jackson Laboratory) were induced to be insulin deficient using streptozotocin (STZ). Mice were fasted for 4 h, following which a single intraperitoneal (i.p.) injection of STZ at a dose of 150 mg/kg was administered. Following an additional 30 min fast, food was returned. Seven days following STZ treatment, insulin-deficient diabetes was verified using hand-held blood glucose meters (CVS brand) with unfasted blood glucose (BG) levels ensured to be above 600 mg/dL for study inclusion. Mice were then fasted for 12 h, and those with BG >550 mg/dL were randomly divided into 4 groups (n=5-6/group). […] BG level were continuously monitored for 3 h after treatment. […] BG were subsequently monitored for 3 h. […] Areas under the curve (AUC) were calculated using the trapezoidal rule and statistical analyses were performed to compare DiPBA and FPBA treatment groups using GraphPad Prism v9.0, with significance obtained using a Student's t-test. […] Glucose levels were monitored over time using handheld glucometers (FIG. 11B). […]"}}, "data": [{"compound": "COC(=O)c1cccc(C[n+]2cccc(B(O)O)c2)c1", "note": "[PyPBA]", "values": [{"measurement": "fructose binding compared to FPBA / traditional PBA", "setting": "[1]", "value": "reduced"}, {"measurement": "Keq for binding to glucose", "setting": "[2]", "value": 164.7, "unit": "M⁻¹"}, {"measurement": "lactate binding compared to FPBA / traditional PBA", "setting": "[3]", "value": "reduced"}, {"measurement": "pKa", "setting": "[4]; DI water titrated with 0.005 M NaOH", "value": 4.41}]}, {"compound": "COC(=O)c1cc(C[n+]2cccc(B(O)O)c2)ccc1C[n+]1cccc(B(O)O)c1", "note": "[DiPBA]", "values": [{"measurement": "fructose binding compared to FPBA / traditional PBA", "setting": "[1]", "value": "reduced"}, {"measurement": "Keq for glucose relative to that for fructose (times higher)", "setting": "[1]; pH 7.4 PBS", "value": 1.7, "unit": "times"}, {"measurement": "glucose affinity relative to a traditional PBA motif (times higher)", "setting": "[2]", "value": 150, "unit": "times"}, {"measurement": "Keq for binding to glucose", "setting": "[2]", "value": 1295, "unit": "M⁻¹"}, {"measurement": "lactate binding compared to FPBA / traditional PBA", "setting": "[3]", "value": "reduced"}, {"measurement": "Keq for glucose relative to that for lactate (times higher)", "setting": "[3]; pH 7.4 PBS", "value": 29, "unit": "times"}, {"measurement": "pKa1", "setting": "[4]", "value": 4.53}, {"measurement": "pKa2", "setting": "[4]", "value": 7.45}]}, {"compound": "insulin: Recombinant Human Insulin, free insulin control, 4 IU/kg s.c.", "values": [{"measurement": "blood glucose response to first i.p. glucose tolerance test", "setting": "[5]; GTT 1.25 g/kg glucose at 180 min", "value": "dramatically increased blood glucose without any subsequent correction"}, {"measurement": "time to blood glucose nadir", "setting": "[5]; s.c.", "value": "~1", "unit": "h"}]}]}
